# Measurements published in ChEMBL document CHEMBL1177720, “Selective hexapeptide agonists and antagonists for human complement C3a receptor” (J Med Chem, 2010).
# Active and inactive are the calls of the source. The rule behind the calls is not given here. Numbered stars: 1 amine (or outer) side, 2 acyl side, 3 side chain; on linkers, the order of the positions; unused ones are H or OH. Square brackets hold non-standard residues; d marks the D form. Peptide text beside a SMILES is read from it. Orn(Me) = CN(CCC[C@H](N[*:1])C(=O)[*:2])[*:3]; 1Nal = N[C@@H](Cc1cccc2ccccc12)C(=O)O; hPhe = N[C@@H](CCc1ccccc1)C(=O)O; Cha = N[C@@H](CC1CCCCC1)C(=O)O; Nle = CCCC[C@H](N)C(=O)O
# Molecular target: T1, C3a anaphylatoxin chemotactic receptor (Homo sapiens) (UniProt Q16581)
# T1 sequence (whole entry): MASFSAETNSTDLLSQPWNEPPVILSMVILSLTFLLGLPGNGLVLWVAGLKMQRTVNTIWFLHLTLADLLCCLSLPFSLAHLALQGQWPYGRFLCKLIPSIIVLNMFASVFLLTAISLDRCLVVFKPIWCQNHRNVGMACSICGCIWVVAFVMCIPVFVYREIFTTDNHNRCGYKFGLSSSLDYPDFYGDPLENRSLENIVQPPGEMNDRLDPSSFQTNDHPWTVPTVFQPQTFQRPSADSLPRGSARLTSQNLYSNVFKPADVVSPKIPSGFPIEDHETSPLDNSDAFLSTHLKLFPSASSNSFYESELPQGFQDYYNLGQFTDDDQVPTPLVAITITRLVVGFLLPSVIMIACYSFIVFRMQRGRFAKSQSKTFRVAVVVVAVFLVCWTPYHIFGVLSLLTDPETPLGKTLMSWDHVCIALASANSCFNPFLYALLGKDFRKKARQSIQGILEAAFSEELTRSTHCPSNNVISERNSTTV
# Test: Agonist activity at human C3a receptor in human U937 cells assessed as induction of intracellular calcium release at 1 mM
# Format: functional, cell-based
# Conditions: U-937
row,Structure (SMILES),Activity
1,CC(C)C[C@H](NC(=O)[C@@H]1CCCN1C(=O)[C@H](CCCCN)NC(=O)[C@@H](N)Cc1ccccc1)C(=O)N[C@@H](Cc1ccccc1)C(=O)N[C@@H](CCCNC(=N)N)C(=O)O (H-FKPLFR-OH),inactive
2,CC(C)C[C@H](NC(=O)[C@@H](N)Cc1ccccc1)C(=O)N[C@H](C(=O)N[C@H](CC1CCCCC1)C(=O)N[C@@H](C)C(=O)N[C@@H](CCCNC(=N)N)C(=O)O)[C@@H](C)O,inactive
3,CC[C@H](C)[C@H](NC(=O)[C@@H](NC(=O)[C@H](CC(C)C)NC(=O)[C@@H](N)Cc1ccccc1)[C@@H](C)O)C(=O)N[C@@H](C)C(=O)N[C@@H](CCCNC(=N)N)C(=O)O (H-FLTIAR-OH),inactive
4,CC(C)C[C@H](NC(=O)[C@H](Cc1ccccc1)NC(=O)[C@H](CCCCN)NC(=O)[C@@H](N)Cc1ccccc1)C(=O)N[C@@H](C)C(=O)N[C@@H](CCCNC(=N)N)C(=O)O (H-FKFLAR-OH),inactive
5,CNCCC[C@H](NC(=O)[C@@H](N)Cc1ccccc1)C(=O)N[C@H](C(=O)N[C@@H](CC(C)C)C(=O)N[C@@H](C)C(=O)N[C@@H](CCCNC(=N)N)C(=O)O)[C@@H](C)O (H-F[Orn(Me)]TLAR-OH),inactive
6,CC(C)C[C@H](NC(=O)[C@@H](NC(=O)[C@H](CC(C)C)NC(=O)[C@@H](N)CCCNC(=N)N)[C@@H](C)O)C(=O)N[C@@H](C)C(=O)N[C@@H](CCCNC(=N)N)C(=O)O (H-RLTLAR-OH),inactive
7,CC(C)C[C@H](NC(=O)[C@@H]1CCCN1C(=O)[C@H](CCCCN)NC(=O)[C@@H](N)CC1CCCCC1)C(=O)N[C@@H](C)C(=O)N[C@@H](CCCNC(=N)N)C(=O)O (H-[Cha]KPLAR-OH),inactive
8,C[C@H](NC(=O)[C@H](Cc1c[nH]c2ccccc12)NC(=O)[C@@H]1CCCN1C(=O)[C@H](CCCCN)NC(=O)[C@@H](N)Cc1ccccc1)C(=O)N[C@@H](CCCNC(=N)N)C(=O)O (H-FKPWAR-OH),inactive
9,CC(C)C[C@H](NC(=O)[C@@H]1CCCN1C(=O)[C@H](CCCCN)NC(=O)[C@@H](N)Cc1ccccc1)C(=O)N[C@@H](CC1CCCCC1)C(=O)N[C@@H](CCCNC(=N)N)C(=O)O (H-FKPL[Cha]R-OH),inactive
10,CC(C)C[C@H](NC(=O)[C@@H]1CCCN1C(=O)[C@H](CCC(=O)O)NC(=O)[C@@H](N)Cc1ccccc1)C(=O)N[C@@H](C)C(=O)N[C@@H](CCCNC(=N)N)C(=O)O (H-FEPLAR-OH),inactive
11,CC(C)C[C@H](NC(=O)[C@@H]1CCCN1C(=O)[C@H](CCCCN)NC(=O)[C@@H](N)Cc1c[nH]c2ccccc12)C(=O)N[C@@H](C)C(=O)N[C@@H](CCCNC(=N)N)C(=O)O (H-WKPLAR-OH),inactive
12,C[C@H](NC(=O)[C@H](Cc1ccccc1)NC(=O)[C@@H]1CCCN1C(=O)[C@H](CCCCN)NC(=O)[C@@H](N)Cc1ccccc1)C(=O)N[C@@H](CCCNC(=N)N)C(=O)O (H-FKPFAR-OH),inactive

# Molecular target: T2, C3a anaphylatoxin chemotactic receptor (Homo sapiens, UniProt Q16581)
# T2 sequence (Q16581 whole entry): T1 sequence (whole entry)
# Test: Agonist activity at human C3a receptor in human U937 cells assessed as induction of intracellular calcium release
# Format: functional, cell-based, U-937
# Conditions: read-out: EC50
row,Structure (SMILES),EC50 [µM]
1,CC(C)C[C@H](NC(=O)[C@H](CO)NC(=O)[C@H](CC(C)C)NC(=O)[C@@H](N)Cc1ccccc1)C(=O)N[C@@H](C)C(=O)N[C@@H](CCCNC(=N)N)C(=O)O (H-FLSLAR-OH),0.36
2,CC(C)C[C@H](NC(=O)[C@@H]1CCCN1C(=O)[C@H](CCCCN)NC(=O)[C@@H](N)Cc1ccccc1)C(=O)N[C@@H](Cc1c[nH]c2ccccc12)C(=O)N[C@@H](CCCN=C(N)N)C(=O)O (H-FKPLWR-OH),25
3,CC(C)C[C@H](NC(=O)[C@H](CO)NC(=O)[C@H](Cc1c[nH]c2ccccc12)NC(=O)[C@@H](N)Cc1ccccc1)C(=O)N[C@@H](C)C(=O)N[C@@H](CCCNC(=N)N)C(=O)O (H-FWSLAR-OH),0.49
4,CC(C)C[C@H](NC(=O)[C@@H]1CCCN1C(=O)[C@H](CC1CCCCC1)NC(=O)[C@@H](N)Cc1ccccc1)C(=O)N[C@@H](C)C(=O)N[C@@H](CCCNC(=N)N)C(=O)O (H-F[Cha]PLAR-OH),0.78
5,CC(C)C[C@H](NC(=O)[C@@H]1CCCN1C(=O)[C@H](Cc1cccc2ccccc12)NC(=O)[C@@H](N)Cc1ccccc1)C(=O)N[C@@H](C)C(=O)N[C@@H](CCCNC(=N)N)C(=O)O (H-F[1Nal]PLAR-OH),0.72
6,CCCC[C@H](NC(=O)[C@@H](NC(=O)[C@H](CC(C)C)NC(=O)[C@@H](N)Cc1ccccc1)[C@@H](C)O)C(=O)N[C@@H](C)C(=O)N[C@@H](CCCN=C(N)N)C(=O)O (H-FLT[Nle]AR-OH),2.7
7,CC(C)C[C@H](NC(=O)[C@@H]1CCCN1C(=O)[C@H](CCCCN)NC(=O)[C@@H](N)Cc1ccccc1)C(=O)N[C@@H](C)C(=O)N[C@@H](CCCNC(=N)N)C(=O)O (H-FKPLAR-OH),33
8,CC(C)C[C@H](NC(=O)[C@@H](NC(=O)[C@H](CC(C)C)NC(=O)[C@@H](N)Cc1ccc(O)cc1)[C@@H](C)O)C(=O)N[C@@H](C)C(=O)N[C@@H](CCCN=C(N)N)C(=O)O (H-YLTLAR-OH),2.5
9,CC(C)C[C@H](NC(=O)[C@@H](NC(=O)[C@H](CC(C)C)NC(=O)[C@@H](N)Cc1ccccc1)C(C)C)C(=O)N[C@@H](C)C(=O)N[C@H](CCCN=C(N)N)C(=O)O,57
10,CC(C)C[C@H](NC(=O)[C@@H]1CCCN1C(=O)[C@H](CC(C)C)NC(=O)[C@@H](N)Cc1ccccc1)C(=O)N[C@@H](C)C(=O)N[C@@H](CCCNC(=N)N)C(=O)O (H-FLPLAR-OH),0.42
11,CC(C)C[C@H](NC(=O)[C@H](C)NC(=O)[C@H](CC(C)C)NC(=O)[C@@H](N)Cc1ccccc1)C(=O)N[C@@H](C)C(=O)N[C@@H](CCCNC(=N)N)C(=O)O (H-FLALAR-OH),101
12,CC(C)C[C@H](NC(=O)[C@@H]1CCCN1C(=O)[C@H](Cc1ccccc1)NC(=O)[C@@H](N)Cc1ccccc1)C(=O)N[C@@H](C)C(=O)N[C@@H](CCCNC(=N)N)C(=O)O (H-FFPLAR-OH),5.4
13,CC(C)C[C@H](NC(=O)[C@@H](N)Cc1ccccc1)C(=O)N[C@H](C(=O)N[C@@H](CC(C)C)C(=O)N1CCC[C@H]1C(=O)N[C@@H](CCCN=C(N)N)C(=O)O)[C@@H](C)O (H-FLTLPR-OH),29
14,CCCC[C@H](NC(=O)[C@@H](N)Cc1ccccc1)C(=O)N1CCC[C@H]1C(=O)N[C@@H](CC(C)C)C(=O)N[C@@H](C)C(=O)N[C@@H](CCCN=C(N)N)C(=O)O (H-F[Nle]PLAR-OH),1.8
15,CC(C)C[C@H](NC(=O)CNC(=O)[C@H](Cc1c[nH]c2ccccc12)NC(=O)[C@@H](N)Cc1ccccc1)C(=O)N[C@@H](C)C(=O)N[C@@H](CCCNC(=N)N)C(=O)O (H-FWGLAR-OH),0.47
16,CC(C)C[C@H](NC(=O)[C@@H](NC(=O)[C@H](CCCCN)NC(=O)[C@@H](N)Cc1ccccc1)[C@@H](C)O)C(=O)N[C@@H](C)C(=O)N[C@@H](CCCNC(=N)N)C(=O)O (H-FKTLAR-OH),3.8
17,N=C(N)NCCC[C@@H](NC(=O)[C@H](CC1CCCCC1)NC(=O)[C@@H](CC1CCCCC1)NC(=O)[C@@H]1CCCN1C(=O)[C@H](CCCCN)NC(=O)[C@@H](N)Cc1ccccc1)C(N)=O,2.2
18,CC(C)C[C@H](NC(=O)[C@@H](NC(=O)[C@H](CC(C)C)NC(=O)[C@@H](N)CCc1ccccc1)[C@@H](C)O)C(=O)N[C@@H](C)C(=O)N[C@@H](CCCNC(=N)N)C(=O)O (H-[hPhe]LTLAR-OH),11
19,CC(C)C[C@H](NC(=O)[C@@H](NC(=O)[C@H](CC(C)C)NC(=O)[C@@H](N)Cc1ccccc1)[C@@H](C)O)C(=O)N[C@@H](C)C(=O)N[C@@H](CCCN=C(N)N)C(N)=O (H-FLTLAR-NH2),37
20,CCCC[C@H](NC(=O)[C@@H](N)Cc1ccccc1)C(=O)N[C@H](C(=O)N[C@@H](CC(C)C)C(=O)N[C@@H](C)C(=O)N[C@@H](CCCN=C(N)N)C(=O)O)[C@@H](C)O (H-F[Nle]TLAR-OH),0.31
21,CC(C)C[C@H](NC(=O)[C@H](C)NC(=O)[C@H](Cc1c[nH]c2ccccc12)NC(=O)[C@@H](N)Cc1ccccc1)C(=O)N[C@@H](C)C(=O)N[C@@H](CCCN=C(N)N)C(=O)O (H-FWALAR-OH),1.2
22,CCCC[C@H](NC(=O)[C@@H]1CCCN1C(=O)[C@H](CCCCN)NC(=O)[C@@H](N)Cc1ccccc1)C(=O)N[C@@H](C)C(=O)N[C@@H](CCCN=C(N)N)C(=O)O (H-FKP[Nle]AR-OH),38
23,CC(=O)N[C@@H](Cc1ccccc1)C(=O)N[C@@H](CC(C)C)C(=O)N[C@H](C(=O)N[C@@H](CC(C)C)C(=O)N[C@@H](C)C(=O)N[C@@H](CCCNC(=N)N)C(=O)O)[C@@H](C)O (Ac-FLTLAR-OH),0.52
24,CC(C)C[C@H](NC(=O)[C@@H]1CCCN1C(=O)[C@H](CCc1ccccc1)NC(=O)[C@@H](N)Cc1ccccc1)C(=O)N[C@@H](C)C(=O)N[C@@H](CCCN=C(N)N)C(=O)O (H-F[hPhe]PLAR-OH),1.1
25,CSCC[C@H](NC(=O)[C@@H]1CCCN1C(=O)[C@H](CCCCN)NC(=O)[C@H](Cc1cnc[nH]1)NC(=O)[C@H](CO)NC(=O)[C@@H](N)Cc1ccc(O)cc1)C(=O)N1CCC[C@H]1C(=O)N[C@@H](CC(C)C)C(=O)N[C@H](C)C(=O)N[C@@H](CCCN=C(N)N)C(=O)O,5.7
26,CC(C)C[C@H](NC(=O)[C@@H](NC(=O)[C@H](CCCNC(=N)N)NC(=O)[C@@H](N)Cc1ccccc1)[C@@H](C)O)C(=O)N[C@@H](C)C(=O)N[C@@H](CCCNC(=N)N)C(=O)O (H-FRTLAR-OH),6.8
27,CC(C)C[C@H](NC(=O)[C@@H]1CCCN1C(=O)[C@H](CCC(N)=O)NC(=O)[C@@H](N)Cc1ccccc1)C(=O)N[C@@H](C)C(=O)N[C@@H](CCCNC(=N)N)C(=O)O (H-FQPLAR-OH),5.3

# Same assay, conditions: read-out: pEC50 (converted)
row,Structure (SMILES),EC50 [µM]
1,CC(C)C[C@H](NC(=O)[C@H](C)NC(=O)[C@H](CC(C)C)NC(=O)[C@@H](N)Cc1ccccc1)C(=O)N[C@@H](C)C(=O)N[C@@H](CCCNC(=N)N)C(=O)O (H-FLALAR-OH),1.1
